Experimental data: the METLIN SMRT retention time set (Domingo-Almenara et al. 2019)

Test: gradient 5% acetonitrile 3 min, to 50% in 2 min, to 85% in 15 min, held 3 min, 100 µL/min
Conditions: column: Zorbax Extend-C18 2.1 x 50 mm; eluents: water / acetonitrile, 0.1% formic acid
Outline: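 Pure standards were run in mixtures of ~100 molecules by HPLC coupled to a quadrupole time-of-flight mass spectrometer. The column was a Zorbax Extend-C18 (2.1 × 50 mm, 1.8 μm) at 100 μL/min, with water and acetonitrile each containing 0.1% formic acid, in positive and negative ionization mode. Dead and dwell volumes were 40 μL and 900 μL. Retention time was taken from computationally picked adduct peaks, each manually inspected, with data collected over 3 months.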

| SMILES | RP-LC retention time |
| --- | --- |
| CCC1CN(C(=O)Nc2ccc3c(c2)OCCO3)c2ccccc2O1 (configuration not stated) | 966 s |
| O=C(NCc1ccccn1)C(=O)Nc1ccc2c(c1)OCO2 | 579 s |
| c1ccc(Cn2cnnc2C2CCCN(Cc3cccs3)C2)cc1 (configuration not stated) | 592 s |
| CC(NC(=O)c1ccco1)c1nc2ccccc2n1CC(=O)N1CCOCC1 (configuration not stated) | 586 s |
| Cc1cc2[nH]c(C(=O)Nc3cc(F)c(F)cc3F)c(CN3CCOCC3)c2s1 | 737 s |
| CCCNC(=O)C1CCN(c2ccc(SCC(=O)Nc3ccccc3C(=O)OCC)nn2)CC1 | 715 s |
| Cc1ccc(S(=O)(=O)N2C(=O)CCC2C(=O)NC2CCCCCCC2)cc1 (configuration not stated) | 1010 s |
| CC(C)(C)S(=O)(=O)c1ccc(N2CCN(Cc3ccccc3)CC2)nn1 | 566 s |
| CCCNC(=O)C1CCCN1C(=O)c1ccc(NC(=O)C(C)(C)C)cc1 (configuration not stated) | 683 s |
| CN(C(=O)Cc1ccc(Cl)c(Cl)c1)[C@@H](CN1CCCC1)c1ccccc1 | 718 s |
| Cc1cc(C)cc(NC(=O)c2cc(C)n3nccc3n2)c1 | 1020 s |
| CC1=NC(C)(C)CC2CCC(O)C12 (configuration not stated) | 683 s |
| COc1ccccc1NS(=O)(=O)c1cc2c(s1)CCN(C(=O)C1CCC1)C2 | 890 s |
| O=C(Nc1ccc(-n2cnc(C(=O)N3CCc4ccccc4C3)c2)nc1)C1CC1 | 733 s |
| O=C(c1ccccc1F)N1CCC2(C1)C(=O)Nc1ccccc12 (configuration not stated) | 662 s |
| CC(C)c1ccc(NC(=O)C2CCN(C(=O)C(C)(C)C)CC2)cc1 | 907 s |
| CC(C)c1c(C(=O)O)nnn1Cc1ccccc1 | 720 s |
| Cc1ccccc1NC(=O)Cn1cnc2nc(N3CCC(C(=O)NC4CC4)CC3)sc2c1=O | 644 s |
| CN(C)S(=O)(=O)c1ccc2c(c1)N(CC(=O)NCc1ccccn1)C(=O)C1CCCCN21 (configuration not stated) | 646 s |
| CC(C)NC(=O)N1CCC2(CC1)Nc1cc(F)ccc1-n1cccc12 | 895 s |

| SMILES | RP-LC retention time |
| --- | --- |
| COCCn1nnnc1C1CC2(CCOCC2)C(=O)N1Cc1cc(F)cc(F)c1 (configuration not stated) | 740 s |
| CC(C(=O)N1CCCCC1)n1ccc2cc(S(=O)(=O)N3CCCCCC3)ccc21 (configuration not stated) | 1010 s |
| OC[C@@H]1CN(C2CCSCC2)C[C@H]1c1nc(-c2cccnc2)no1 | 555 s |
| O=c1n(Cc2ccccc2Cl)nc2ccc(S(=O)(=O)N3CCCCCC3)cn12 | 1000 s |
| Cn1c(=O)c2nc(SCCC(=O)Nc3ccc(Br)cc3F)n(C)c2n(C)c1=O | 806 s |
| CC1CN(C(=O)N2CCC(C(=O)N3CCN(c4ccccn4)CC3)CC2)c2cc(Cl)ccc2O1 (configuration not stated) | 672 s |
| Cc1noc(C2CN(C(=O)CCC(C)C)CC23CCOCC3)n1 (configuration not stated) | 678 s |
| Cc1ncsc1CN1CCC2(CC1)CC(Cc1ccc(F)cc1)CCO2 (configuration not stated) | 556 s |
| CC(C)N1C(=O)C(CC(=O)Nc2cccc(OC(F)(F)F)c2)=C2CCCCC21 (configuration not stated) | 1080 s |
| COc1ccc(-c2nc3n(n2)C2(CCCCC2)[C@@H]2CCCC[C@@H]2N3C(=O)C2CC2)cc1 | 682 s |
| COC(=O)N1CCN(CCNC(=O)NCCCc2ccccc2)CC1 | 559 s |
| Cc1[nH]c(C(=O)N2CCCC(C(=O)NCCCN3CCCCCC3)C2)c(C)c1C(=O)OC(C)C (configuration not stated) | 650 s |
| CC(C)n1ccnc(N2CCOCC2)c1=O | 601 s |
| Cc1c(CN2CCSCC2)nnn1-c1ccccc1 | 583 s |
| Cc1nnc(C2CCCCCN2C(=O)c2ccoc2C)o1 (configuration not stated) | 699 s |
| O=C(Nc1cccc(Cl)c1F)N1CCc2nc[nH]c2C1 | 589 s |
| CCNc1nc(C)cc(N2CCN(S(=O)(=O)c3cc(Cl)ccc3Cl)CC2)n1 | 776 s |
| Cc1ccc2nc(C(=O)NCCN(C)C3CCCCC3)cn2c1 | 564 s |
| COCCNC(=O)N1CCC(C(=O)NCC(F)(F)F)CC1 | 571 s |
| Cn1c(CNC(=O)C2CCC2)nc2c1CN(C(=O)Nc1ccc(F)cc1)CC2 | 603 s |

More lines, now with the values ahead:

| RP-LC retention time | SMILES |
| --- | --- |
| 908 s | CCNC(=O)N1CCCC(c2cccc(C(=O)NCc3ccc(CC)cc3)c2)C1 (configuration not stated) |
| 1100 s | CCC(C)c1ccc(NC(=O)c2nn(C)cc2Cl)cc1 (configuration not stated) |
| 1320 s | CCOc1nc2ccccc2nc1N1CCCC(C(=O)Nc2cc(C)cc(C)c2)C1 (configuration not stated) |
| 816 s | O=C(CSc1nccn(-c2ccc(F)c(F)c2)c1=O)NCc1ccccc1Cl |
| 602 s | CC(C)(CO)NCc1ccc(-c2ccccc2F)o1 |
| 964 s | COc1ccccc1C(=O)Nc1cccc(Cl)c1 |
| 1050 s | CCc1ccccc1NS(=O)(=O)c1cn(CC(C)C)c2ncccc12 |
| 612 s | O=C(O)c1nnn(-c2ccccc2F)c1-c1cccnc1 |
| 1010 s | COc1cccc(-c2noc(CCn3nc(-c4ccc(Cl)cc4)ccc3=O)n2)c1OC |
| 792 s | Cn1nc(C(=O)NC2CCN(c3cc(-c4ccccc4)[nH]n3)CC2)c2ccccc21 |
| 1190 s | COc1cc(NS(=O)(=O)c2ccc(Nc3nc(-c4ccc(C)c(C)c4)cs3)cc2)nc(OC)n1 |
| 657 s | Nc1ccc2c3c(cccc13)C(=O)NC2=O |
| 714 s | CC[C@H](Nc1ncnc2nc[nH]c12)c1nc2cccc(F)c2c(=O)n1-c1ccccc1 |
| 936 s | CCOc1ccc(-c2noc(CN3N=NC4C(=O)N(c5ccc(F)cc5)C(=O)C43)n2)cc1OC (configuration not stated) |
| 1040 s | CCc1cccc(NC(=O)CSc2cc(N3CCN(c4ccc(OC)cc4)CC3)ncn2)c1 |
| 574 s | CC1CCN(c2ccc(CNc3nc4ccncc4n(C(C)C)c3=O)cc2)CC1 |
| 665 s | CCOc1cccc(CNc2nc3ccncc3n(CC)c2=O)c1 |
| 1110 s | Cc1ccc(C)c(NC(=O)c2csc(-c3cn(C)c4ncccc34)n2)c1 |
| 770 s | O=C(CCCn1nnc2ccccc2c1=O)Nc1ccccc1Cl |
| 881 s | COc1ccccc1-c1csc(NC(=O)Cc2csc(C)n2)n1 |
| 942 s | COc1ccccc1NC(=O)Cn1cccc1-c1nnc(C2CCC2)o1 |
| 736 s | Cn1c(-c2cccc(C(=O)N3CCN(c4ccccc4)CC3)c2)nc2cccnc21 |
| 732 s | COc1ccccc1N1CCN(c2cc(SCC(=O)NCC3CCCO3)ncn2)CC1 (configuration not stated) |
| 953 s | Cc1ccc(C)c(-n2ccn(Cc3nc(-c4ccccc4C)no3)c(=O)c2=O)c1 |
| 852 s | CCC(C)NC(=O)Cn1cccc(-c2nc(-c3ccc(Cl)cc3)no2)c1=O (configuration not stated) |
| 756 s | Cc1cc(Cl)ccc1S(=O)(=O)N1CCc2nn(C)c(=O)n2CC1 |

| RP-LC retention time | SMILES |
| --- | --- |
| 812 s | CCn1cc(CCNS(=O)(=O)Cc2ccc(F)cc2Cl)c2cccnc21 |
| 656 s | Cc1nnc2c(=O)n(CC(=O)NCc3ccc(F)cc3)c3cccnc3n12 |
| 796 s | O=C(CCc1cn(Cc2ccccc2Cl)c2ccccc12)N1CCN(c2ccccn2)CC1 |
| 1030 s | Cc1cccc(-c2cc3n(n2)CCCN(C(=O)Cc2cccc(C(F)(F)F)c2)C3)c1 |
| 739 s | COc1ccc(NC(=O)Cn2c(=O)n(-c3ccc(F)cc3)c(=O)c3c2cc(C)n3C)cc1OC |
| 727 s | CCOc1ccc(CC(=O)NC2CCN(c3cc(-c4cccs4)[nH]n3)C2)cc1OCC (configuration not stated) |
| 1100 s | CCNS(=O)(=O)c1cccc(-c2nc(-c3ccc(C)cc3)no2)c1 |
| 939 s | CCc1noc(C2CCCCN2Cc2cc(F)ccc2F)n1 (configuration not stated) |
| 645 s | COc1cccc(N2C=C(C(=O)N3CCOCC3)S(=O)(=O)c3ccccc32)c1 |
| 1020 s | Cc1ccc(-n2ccnc2SCc2nc(-c3cccc(C)c3)no2)cc1 |
| 900 s | COc1cccc2oc(-c3ccccc3)cc(=O)c12 |
| 764 s | COCCCN(CC(=O)N1CCc2sccc2C1COc1ccccc1F)C(C)=O (configuration not stated) |
| 642 s | CCOC(=O)CNC(=O)N1CCC(n2c(-c3ccc(C)cc3)nc3cccnc32)C1 (configuration not stated) |
| 603 s | CCCc1nc2cccnc2n1C1CCN(C(=O)NCc2ccccc2)C1 (configuration not stated) |
| 610 s | O=C(CCc1c(-c2ccc(Br)cc2)nc2ccccn12)NC1CC1 |
| 658 s | COc1ccc(N2CC(CNC(=O)Nc3c(F)cccc3F)CC2=O)cc1 (configuration not stated) |
| 844 s | Cc1ccsc1C(=O)NCCc1cn(CC(C)C)c2ncccc12 |
| 835 s | COCc1nc(-c2ccc(OC3CCN(C(=O)c4n[nH]c5ccccc45)C3)cc2)no1 (configuration not stated) |
| 646 s | c1csc(Cc2nc(-c3ccc4c(c3)ncn4CCN3CCCCC3)no2)c1 |
| 746 s | O=C(CCN1C(=O)c2cccnc2Sc2ccccc21)NCCc1c[nH]c2ccccc12 |
| 718 s | Cc1ccccc1NC(=O)Cn1cnc2onc(C)c2c1=O |
| 857 s | O=S(=O)(c1ccc2nncn2c1)N(Cc1cccc(F)c1)c1ccc(F)cc1 |
| 1110 s | Cc1ccc(-n2c(=O)c3sccc3n(Cc3nc(-c4cccc(Br)c4)no3)c2=O)cc1 |
| 804 s | COc1ccc(-c2cn3ccn(-c4ccc(F)c(Cl)c4)c(=O)c3n2)cc1OC |
| 708 s | CC(C)c1ccc(CNC(=O)c2ccc3ncnc(N4CCOCC4)c3c2)cc1 |
| 882 s | CS(=O)(=O)N1CCC(C(=O)NCc2ccccc2)Oc2ccc(Cl)cc21 (configuration not stated) |
